Each block holds one compound with its values, some of them ahead of it.
Legend:
[1] = test system: MCF7; assay: cells; details: Homo sapiens, MCF7, 96 h
[2] = molecular target: CYP450 (Homo sapiens, UniProt P04798+P05177+P05181+P08684+P10632+P10635+P11509+P11712+P13584+P20813+P20815+P20853+P24462+P24903+P33260+P33261+P51589+P78329+P98187+Q02928+Q08477+Q16678+Q16696+Q5TCH4+Q6VVX0+Q7Z449+Q8TAV3+Q96SQ9+Q9HB55); assay: Inhibition of CYP450 (unknown origin); type: ADME, protein assay
[3] = Clearance in rat liver microsomes; type: ADME, Microsome
[4] = molecular target: Phosphatidylinositol 4,5-bisphosphate 3-kinase catalytic subunit alpha isoform (Homo sapiens, UniProt P42336); assay: Inhibition of GST-tagged human recombinant PI3K-p110alpha extracted from baculovirus-infected Sf9 insect cells incubated for 1 hr by microbeta counter analysis
[5] = Oral bioavailability in mouse plasma at 5 mg/kg by LC-MS/MS analysis; type: ADME, organism-based
[6] = Oral bioavailability in mouse plasma at 50 mg/kg by LC-MS/MS analysis; type: ADME, organism-based
[7] = Plasma protein binding in mouse; type: ADME, cell-free; details: read-out: PPB (converted)
[8] = Cmax in mouse plasma at 5 mg/kg, po; type: ADME, organism-based
[9] = Clearance in mouse at 1 mg/kg, iv; type: ADME, organism-based; details: in vivo
[10] = Cmax in mouse plasma at 50 mg/kg, po; type: ADME, organism-based
[11] = Volume of distribution at steady state in mouse at 1 mg/kg, iv; type: ADME, organism-based; details: in vivo, read-out: Vdss
[12] = AUC in mouse plasma at 5 mg/kg, po; type: ADME, organism-based; details: in vivo
[13] = AUC in mouse plasma at 50 mg/kg, po; type: ADME, organism-based; details: in vivo
[14] = Cmax in mouse at 1 mg/kg, iv; type: ADME, organism-based; details: in vivo
[15] = Cmax in rat at 3.4 mg/kg, po; type: ADME, organism-based; details: in vivo
[16] = Oral bioavailability in human; type: ADME, organism-based; details: in vivo
[17] = Intrinsic clearance in rat liver microsomes; type: ADME, Microsome; details: read-out: CLH (converted)
[18] = molecular target: Cytochrome P450 3A4 (Homo sapiens, UniProt P08684); assay: Inhibition of CYP3A4 (unknown origin); type: ADME
[19] = Half life in monkey; type: ADME, Macaca mulatta; details: rhesus monkey, in vivo
[20] = Metabolic stability in mouse liver microsomes assessed as half life; type: ADME, Microsome
[21] = Oral bioavailability in Dog; type: ADME, organism-based, Canis lupus familiaris; details: in vivo
[22] = Oral bioavailability in mouse; type: ADME, organism-based; details: in vivo
[23] = Oral bioavailability in mouse at 1 mg/kg; type: ADME, organism-based; details: in vivo
[24] = Oral bioavailability in rat at 1 mg/kg; type: ADME, organism-based; details: in vivo
[25] = Volume of distribution at steady state in mouse at 3 mg/kg, iv; type: ADME, organism-based; details: in vivo
[26] = AUC (0 to t) in SCID mouse at 3 mg/kg, iv; type: ADME, organism-based; details: in vivo
[27] = Oral bioavailability in mouse at 3 mg/kg by LC-MS/MS analysis; type: ADME, organism-based; details: in vivo
[28] = Cmax in SCID mouse at 3 mg/kg, iv measured upto 24 hrs by LC/MS-MS analysis; type: ADME, organism-based; details: in vivo
[29] = Oral bioavailability in rat at 3 mg/kg by LC-MS/MS analysis; type: ADME, organism-based; details: in vivo
[30] = Half life in SCID mouse at 3 mg/kg, po; type: ADME, organism-based; details: in vivo
[31] = Oral bioavailability in Beagle dog at 3 mg/kg by LC-MS/MS analysis; type: ADME, organism-based, Canis lupus familiaris; details: in vivo

Sequence of Cytochrome P450 3A4 (P08684 whole entry): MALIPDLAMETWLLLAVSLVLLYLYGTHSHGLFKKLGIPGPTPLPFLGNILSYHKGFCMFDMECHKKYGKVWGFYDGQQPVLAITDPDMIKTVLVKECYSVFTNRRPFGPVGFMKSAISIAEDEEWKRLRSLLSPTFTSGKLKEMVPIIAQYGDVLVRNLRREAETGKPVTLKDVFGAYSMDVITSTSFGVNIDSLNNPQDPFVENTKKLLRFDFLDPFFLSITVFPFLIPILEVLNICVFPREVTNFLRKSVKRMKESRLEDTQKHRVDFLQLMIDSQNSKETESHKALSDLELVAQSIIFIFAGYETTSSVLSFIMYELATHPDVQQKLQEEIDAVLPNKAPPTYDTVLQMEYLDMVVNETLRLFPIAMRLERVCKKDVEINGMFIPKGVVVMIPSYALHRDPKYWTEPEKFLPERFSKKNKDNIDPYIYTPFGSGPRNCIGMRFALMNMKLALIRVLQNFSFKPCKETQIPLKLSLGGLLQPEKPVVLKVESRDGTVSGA
Sequence of Phosphatidylinositol 4,5-bisphosphate 3-kinase catalytic subunit alpha isoform (P42336 whole entry, canonical isoform): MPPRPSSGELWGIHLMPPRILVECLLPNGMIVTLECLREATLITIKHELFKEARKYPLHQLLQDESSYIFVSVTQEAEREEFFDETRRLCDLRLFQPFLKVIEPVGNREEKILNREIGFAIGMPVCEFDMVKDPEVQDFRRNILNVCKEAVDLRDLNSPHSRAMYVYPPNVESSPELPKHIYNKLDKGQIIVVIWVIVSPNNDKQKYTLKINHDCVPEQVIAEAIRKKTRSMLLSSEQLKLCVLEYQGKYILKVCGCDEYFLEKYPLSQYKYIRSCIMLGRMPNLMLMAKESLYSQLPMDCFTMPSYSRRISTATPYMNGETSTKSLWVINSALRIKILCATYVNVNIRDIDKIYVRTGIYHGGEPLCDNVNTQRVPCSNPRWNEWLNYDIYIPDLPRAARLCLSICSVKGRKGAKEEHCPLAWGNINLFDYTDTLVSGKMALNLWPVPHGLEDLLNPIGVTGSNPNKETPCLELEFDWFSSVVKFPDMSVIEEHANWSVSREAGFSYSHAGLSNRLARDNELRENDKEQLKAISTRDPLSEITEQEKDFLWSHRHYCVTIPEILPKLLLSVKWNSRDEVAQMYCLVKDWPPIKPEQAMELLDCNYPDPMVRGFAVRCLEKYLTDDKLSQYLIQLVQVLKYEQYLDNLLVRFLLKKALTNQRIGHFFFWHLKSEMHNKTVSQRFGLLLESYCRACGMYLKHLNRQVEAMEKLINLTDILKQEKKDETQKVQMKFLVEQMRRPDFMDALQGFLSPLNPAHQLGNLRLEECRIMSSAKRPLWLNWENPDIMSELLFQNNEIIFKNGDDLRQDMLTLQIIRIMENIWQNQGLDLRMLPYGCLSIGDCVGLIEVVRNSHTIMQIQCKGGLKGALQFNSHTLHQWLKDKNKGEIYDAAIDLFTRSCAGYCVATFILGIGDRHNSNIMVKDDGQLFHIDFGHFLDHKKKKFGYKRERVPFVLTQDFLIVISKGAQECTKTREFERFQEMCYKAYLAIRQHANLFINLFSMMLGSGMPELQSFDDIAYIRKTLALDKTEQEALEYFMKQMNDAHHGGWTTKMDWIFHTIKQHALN

IC50 [1]: 0.356 µM
Structure (SMILES): Cc1c(CN2CCN(C(=O)[C@@H](C)O)CC2)sc2c(N3CCOCC3)nc(-c3cnc(N)nc3)nc12

IC50 [2]: > 10 µM
CLH [3]: 62 µL/min/µg
IC50 [4]: 0.0075 µM
Structure (SMILES): Cc1nc(NC(=O)N2CCC[C@H]2C(N)=O)sc1-c1ccnc(Nc2ccccc2C(C)(C)C)n1

bioavailability [5]: 56%
bioavailability [6]: 66%
fraction unbound [7]: 0.29
Cmax [8]: 2 µM
clearance [9]: 0.552 L/h/kg
Cmax [10]: 24 µM
Vd [11]: 1.7 L/kg
AUC [12]: 10 µM·h
AUC [13]: 121 µM·h
Structure (SMILES): C[C@H](NC(=O)c1c(N)ccc2cccnc12)c1cc2cccc(Cl)c2c(=O)n1-c1ccccc1

Cmax [14]: 0.52 µM
Cmax [15]: 0.19 µM
CLH [3]: 29 µL/min/µg
Structure (SMILES): Cc1nc(NC(=O)N2CCC[C@H]2C(N)=O)sc1-c1ccnc(C(C)(C)C(F)(F)F)c1 [ALPELISIB]

bioavailability [16]: 54%
CLint scaled [17]: 0.34 L/h/kg
Structure (SMILES): C[C@H](Nc1ncnc2[nH]cnc12)c1cc2ccc(F)cc2nc1-c1ccccn1 [AMG-319]

IC50 [1]: 0.255 µM
Structure (SMILES): Cc1c(CN2CCN(C(=O)[C@H](C)O)CC2)sc2c(N3CCOCC3)nc(-c3cnc(N)nc3)nc12 [APITOLISIB]

IC50 [18]: > 20 µM
half-life [19]: 4.3 h
half-life [20]: > 6 h
Structure (SMILES): C[C@H](NC(=O)c1c(N)nn2cccnc12)c1cc2cccc(C#Cc3cnn(C)c3)c2c(=O)n1-c1ccccc1 [EGANELISIB]

bioavailability [21]: 80%
bioavailability [22]: 100%
Structure (SMILES): COc1ncc(-c2ccc3nccc(-c4ccnnc4)c3c2)cc1NS(=O)(=O)c1ccc(F)cc1F [OMIPALISIB]

bioavailability [23]: 75%
bioavailability [24]: 77%
Structure (SMILES): CC1(C)OCCn2c1nc1c(N3CCOCC3)nc(-c3cnc(N)nc3)nc12 [PAXALISIB]

Vdss [25]: 1 L/kg
AUCt [26]: 600 h/ng/mL
bioavailability [27]: 30%
Cmax [28]: 1.87 µg/mL
bioavailability [29]: 70%
half-life [30]: 1.4 h
bioavailability [31]: 67%
Structure (SMILES): C[C@H]1Cc2ccccc2N1C(=O)Cc1nc(N2CCOCC2)cc(=O)[nH]1 [SAR-260301]

— ChEMBL document CHEMBL6071150, “From lab to clinic: The discovery and optimization journey of PI3K inhibitors” (Eur J Med Chem, 2024)
